Assay results reported in patent US4562073A, “Penicillin derivatives” (Taiho Pharmaceutical Company Limited, priority 1982, dated 1985).
In brackets after ≈: the same amount, converted by molar mass.

System: 30 strains of coliform bacilli collected from the living body of humans
Experiment: MIC50/MIC70 against 30 strains of coliform bacilli
Format: cell-based
Conditions: 70% of the 30 strains; for MIC70 of ampicillin combined with present compound / MIC70 of cephalexin combined with present compound / MIC70 of mecillinam combined with present compound / MIC70 of piperacillin combined with present compound: present compound 10 μg/ml
Experimental: The MIC of ampicillin as combined with the present compound (10 μg/ml) was measured against the same bacteria. In the method, the bacteria cultivated in Mueller Hinton Broth (product of DIFCO) and diluted to 10^7 CFU/ml were inoculated into the same medium containing ampicillin and the present compound in a specific concentration, and incubated at 37° C. for 20 hours. […] The bacteria as used in the test were those capable of producing β-lactamase, among which the bacteria marked * in the table are those collected from the living body of human hosts and the others are a stock culture.
(2) Effects by antibiotics as combined with the present compound
The compounds of the present invention, ampicillin, mecillinam, piperacillin and cephalexin, each singly used, were also tested for minimal inhibitory concentration against 30 strains of coliform bacilli collected from the living body of humans. The MIC of each antibiotic as combined with the present compound (10 μg/ml) was likewise measured. Table 3 to 6 indicate the results in which MIC50 and MIC70 indicate the minimal inhibitory concentration for inhibiting the growth of 50% and 70% respectively of the strains. The MICs of the present compounds singly used were all more than 25 μg/ml.

Compound | MIC70, ampicillin singly used [µg/mL] | MIC70 of ampicillin combined with present compound [µg/mL] | MIC70 of cephalexin combined with present compound [µg/mL] | MIC70 of mecillinam combined with present compound [µg/mL] | MIC70 of piperacillin combined with present compound [µg/mL]
CC1(C)S[C@@H]2[C@H](NC(=O)[C@H](N)c3ccccc3)C(=O)N2[C@H]1C(=O)O [Ampicillin, ampicillin, reference compound] | 400 (≈ 1140 µM) | – | – | – | –
CCOC(=O)c1cn(C[C@@]2(C)[C@H](C(=O)O)N3C(=O)C[C@H]3S2(=O)=O)nn1 [Compound 7, sodium 2β-(4-ethoxycarbonyl-1,2,3-triazol-1-yl)methyl-2α-methylpenam-3α-carboxylate-1,1-dioxide] | – | 50 | 100 | 0.39 | 6.25
C[C@]1(Cn2ccnn2)[C@H](C(=O)O)N2C(=O)C[C@H]2S1(=O)=O [Compound 22, sodium 2α-methyl-2β-(1,2,3-triazol-1-yl)methylpenam-3α-carboxylate-1,1-dioxide] | – | 6.25 | 50 | 0.2 | 1.56

The next lines start with the values.

MIC70, ampicillin singly used [µg/mL] | MIC70 of ampicillin combined with present compound [µg/mL] | MIC70 of cephalexin combined with present compound [µg/mL] | MIC70 of mecillinam combined with present compound [µg/mL] | MIC70 of piperacillin combined with present compound [µg/mL] | Compound
– | 100 | 100 | 0.39 | 25 | CCOC(=O)c1cnnn1C[C@@]1(C)[C@H](C(=O)O)N2C(=O)C[C@H]2S1(=O)=O [Compound 11, sodium 2β-(5-ethoxycarbonyl-1,2,3-triazol-1-yl)methyl-2α-methylpenam-3α-carboxylate-1,1-dioxide]
– | 6.25 | 25 | 0.1 | 3.13 | C[C@]1(Cn2cc(C(=O)O)nn2)[C@H](C(=O)O)N2C(=O)C[C@H]2S1(=O)=O [Compound 16, dipotassium 2β-(4-carboxy-1,2,3-triazol-1-yl)methyl-2α-methylpenam-3α-carboxylate-1,1-dioxide]
– | 100 | – | 0.39 | 50 | C[C@]1(Cn2nncc2C(=O)O)[C@H](C(=O)O)N2C(=O)C[C@H]2S1(=O)=O [Compound 17, dipotassium 2β-(5-carboxy-1,2,3-triazol-1-yl)methyl-2α-methylpenam-3α-carboxylate-1,1-dioxide]
